Data on one compound can be found in patent US9302996B2, “Continuous arycyclic compound” (MITSUBISHI TANABE PHARMA CORPORATION, priority 2010, dated 2016).

Each structure is given as a SMILES string. Read-outs that look alike come from different tables or passages of the source.

Holding throughout (format): in vivo
The test system of one assay is KK-Ay mice. Description: Weight gain-inhibiting action, hypoglycemic effect, insulin in blood plasma lowering action in KK-Ay mice. The settings on record: Mus musculus, 336 h, male KK-Ay mice, high fat diet, 30 mg/kg/day oral, 2 weeks.
The test system of another assay is C57BL/6J mice. The experiment in a line: Antifeeding activity (high fat diet intake up to 4 hours). The settings on record: Mus musculus, male C57BL/6J mice, 5 mg/kg oral, food ingested up to 4 hours, read-out: Antifeeding rate (5 mg/kg).
In another assay the test system is ICR mice. Description: Triglyceride (TG) in blood plasma increase-inhibiting action due to lipid administration. The following applies: Mus musculus; male ICR mice, 5 mg/kg oral, lipid (Intralipos 20%) after 30 minutes, plasma TG 2 hours after lipid; read-out: Inhibiting rate of TG-increase in blood plasma (5 mg/kg). Put shortly: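 Male ICR mice (6–9 weeks), fasted overnight, dosed orally with compound in 0.2% CMC; oral lipid emulsion (10 mL/kg) 30 min later. Plasma TG from tail vein before and 2 h after lipid load; rise in TG expressed as percent inhibition versus vehicle group.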

Turning to `O=C(O)C1(COc2ccc(-c3ccc(-c4ncc(C(F)(F)F)[nH]4)cn3)cc2)CCC1` [Example 14], the inhibition in vivo at 30 mg/kg worked out at 23% with KK-Ay mice (read-out: Hypoglycemic action (30 mg/kg/day)), 27% in the assay with KK-Ay mice (read-out: Insulin in blood plasma-lowering action (30 mg/kg/day)) and 17% with KK-Ay mice (read-out: Weight gain-inhibiting action (30 mg/kg/day)). Further, the values for the inhibition in vivo at 5 mg/kg with C57BL/6J mice and in the assay with ICR mice were 66% and 69%, respectively.
